Laboratory results reported in article PMC10027881 (Scientific Reports, 2023).
Read-outs that look alike come from different tables or passages of the source.

How the values were obtained:
GST [1] = assay: GST expression by western blotting; assay type: cell-based, human
Description: (§1) Caco2 and hEL cells were cultured in a 100 mm^2 cell culture dish with MEM containing 10% FBS at 37 °C in a humidified atmosphere of 5% CO2. To determine the effects of the treatment conditions, hEL cells were incubated with various concentrations of B(a)P and G-Rg3 in MEM for 48 h. The cells were subjected to further analysis or harvested to prepare cell-free extracts.
(§2) hEL cells were washed using ice-cold PBS and then lysed using radioimmunoprecipitation assay buffer containing a protease inhibitor and phosphatase inhibitors. After protein quantification using a total protein assay kit, 30 µg of protein from each sample was separated by 12% SDS‒PAGE and transferred electrophoretically onto the PVDF membrane. The membranes were blocked using 5% skim milk and then incubated with primary antibodies overnight at 4 °C. After incubation with horseradish peroxidase-conjugated secondary antibody, enhanced chemiluminescent reagent was added to visualize the binding signals. The intensity of each protein band was quantified using ImageJ software.

GST [2] = assay: GST activity assay kit; assay type: cell-based, human
Description: hEL cells were seeded in 96-well plates at a density of 1 × 10^4 cells per well and treated with 10 µM B(a)P in the absence or presence of 10 µM G-Rg3 for 48 h. GST activity was measured using a commercial GST activity assay kit according to the manufacturer’s protocols. The relative activation of GST was measured by using a microplate reader for absorbance at 450 nm.

Nrf2 = Nrf2 expression by western blotting; assay type: cell-based, human
Description: as §1, §2

Caco-2 cells = conditions: cited from earlier work
[3] = Side effects in the model mice: body weight, plasma ALT and Cr; assay type: in vivo, A/J mice; conditions: G-Rg3 treatment groups vs control group
Description: (§3) All experiments were performed in accordance with relevant guidelines and regulations, and the study was conducted in accordance with Animal Research: Reporting of in vivo Experiments (ARRIVE) guidelines. […] One week later, the mice were randomly divided into control and different treatment groups with 15 mice per group, and treatment was performed once every day via oral gavage. Following 20 weeks of treatment, the animals were sacrificed by CO2 asphyxiation. The lungs were collected and fixed for 24 h. Quantification of the surface tumor count and individual tumor size on each lung was performed under a dissecting microscope. The tumor volume (V) estimation was calculated using the following expression: V (mm^3) = 4/3πr^3, where r is the tumor diameter. The net sum of all the volumes of tumors in a mouse lung was the total tumor volume, with the mean total tumor volume per group represented the tumor load. Whole blood and intestine samples were collected and stored at − 80 °C for UPLC‒MS/MS assays. Serum was collected and analyzed for alanine transaminase (ALT) and serum creatinine (Cr) levels by an automatic biochemical analyzer to evaluate liver and kidney function.

[4] = UPLC-MS/MS levels of ginsenosides in blood/plasma and intestine after 20-weeks treatment; assay type: in vivo, A/J mice; conditions: for concentration at 20 weeks: A/J, mouse
Description: All experiments were approved by the laboratory animal ethics committee of Tongji Medical College, Huazhong University of Science and Technology (approval no. 2019; file no. 4587TH). All experiments were performed in accordance with relevant guidelines and regulations, and the study was conducted in accordance with Animal Research: Reporting of in vivo Experiments (ARRIVE) guidelines. Eight-week-old A/J mice were given an initial intraperitoneal injection of B(a)P in tricaprylin (100 mg/kg in 0.2 mL). One week later, the mice were randomly divided into control and different treatment groups with 15 mice per group, and treatment was performed once every day via oral gavage. Following 20 weeks of treatment, the animals were sacrificed by CO2 asphyxiation. The lungs were collected and fixed for 24 h. Quantification of the surface tumor count and individual tumor size on each lung was performed under a dissecting microscope. The tumor volume (V) estimation was calculated using the following expression: V (mm^3) = 4/3πr^3, where r is the tumor diameter. The net sum of all the volumes of tumors in a mouse lung was the total tumor volume, with the mean total tumor volume per group represented the tumor load. Whole blood and intestine samples were collected and stored at − 80 °C for UPLC‒MS/MS assays. Serum was collected and analyzed for alanine transaminase (ALT) and serum creatinine (Cr) levels by an automatic biochemical analyzer to evaluate liver and kidney function.
As described above, the collected samples were retrieved from cold storage, thawed, weighed, and placed in a test tube. To this, 0.5 µM phloridzin (internal standard) in 0.8 mL of methanol solution was added. Then, the tissue was homogenized using a Tissue-Tearor and the homogenate was subsequently transferred into a 1.5 mL microcentrifuge tube. The mixture was centrifuged for 15 min at 15,500 rpm. Following the removal of […] of the supernatant, nitrogen–based drying was performed. Two hundred microliters of methanol was used for reconstitution. Blood was collected and processed on the same lines and used as a reference for all measurements.

[5] = test system: lung tumors induced by B(a)P in A/J mice; assay: B(a)P-induced lung tumorigenesis in A/J mice, tumor load; assay type: in vivo; conditions: G-Rg3 study, 20-weeks treatment; control 1.63 ± 0.40
Description: The mice were sacrificed by CO2 asphyxiation after the 20th week of red ginseng treatment.
as §3

[6] = test system: BPDE-DNA adducts in hEL cells; assay: BPDE-DNA adduct formation (ELISA kit); assay type: cell-based, human; conditions: for BPDE-DNA adduct level: 10 µM B(a)P cotreatment with 10 µM G-Rg3, 48 h; for BPDE-DNA adducts: B(a)P and G-Rg3 cotreatment
Description: After treatment for 48 h, DNA was extracted from hEL cells using the QIAamp DNA Mini Kit according to the manufacturer’s protocol. BPDE-DNA adduct formation was detected using the BPDE-DNA adduct ELISA kit. The relative BPDE-DNA adduct levels were measured using a microplate reader for absorbance at 450 nm.

Caco-2 monolayer = assay: Transcellular transport across the Caco-2 monolayer; assay type: in vitro ADME; conditions: for Pb-a compared with Pa-b: no verapamil
Description: This assay was performed in accordance with an earlier study.
The cells were subjected to washing using HBSS and preincubation at 37 °C following 3 weeks of culture. […] Collection of 100 µL medium was performed at the indicated times (0, 15, 30, 45, 60, 90, and 120 min), and 100 µL HBSS was added to replenish this volume. These samples were stored at […] until UPLC‒MS/MS assays. The expression Papp = dQ/(dT × A × C0) was utilized to quantify the apparent unidirectional permeability for both the apical and basolateral sides and vice versa (Pa-b and Pb-a, respectively); dQ/dT represents the concentration change, A (0.6 cm^2) represents the monolayer surface area, and C0 represents the initial donor concentration. The efflux ratio was calculated as Pb-a/Pa-b, which represents the degree of efflux transport of the study drug.

hEL cells = assay: Cell viability (MTS) assay; assay type: cell-based, human; conditions: compound alone, 0-20 µM, 48 h
Description: Caco2 and hEL cells were cultured in a 100 mm^2 cell culture dish with MEM containing 10% FBS at 37 °C in a humidified atmosphere of 5% CO2. […] The cells were subjected to further analysis or harvested to prepare cell-free extracts.
A commercially available MTS assay kit was used, and cells were subjected to the standard protocol followed by measurement at 490 nm wavelength with a microplate reader.

[7] = test system: rat pulmonary epithelial cells; set-up: method as in PMID 17357179; conditions: in the presence of verapamil; cited from earlier work
[8] = cited from earlier work
[9] = 10 µM B(a)P cotreatment with 10 µM G-Rg3
[10] = 10 µM B(a)P cotreatment with 10 µM G-Rg3, 48 h
[11] = verapamil 50 or 100 µM vs no verapamil

c1ccc2c(c1)cc1ccc3cccc4ccc2c1c34 [B(a)P, benzo(a)pyrene, reference compound]
GST expression (GST [1]; 10 µM B(a)P alone, G-Rg3r groups): 59.7 ± 8.2% | GST expression (GST [1]; 10 µM B(a)P alone, G-Rg3s groups): 39 ± 4.5% | GST activity (GST [2]; 10 µM B(a)P only, 48 h): 35.7 ± 7.8% | level of Nrf2 (Nrf2; B(a)P only, G-Rg3r experiment): 51.3 ± 6.8% | level of Nrf2 (Nrf2; B(a)P only, G-Rg3s experiment): 41 ± 9.8%

CC(C)=CCC[C@](C)(O[C@@H]1O[C@H](CO)[C@@H](O)[C@H](O)[C@H]1O)[C@H]1CC[C@]2(C)[C@@H]1[C@H](O)C[C@@H]1[C@@]3(C)CC[C@H](O)C(C)(C)[C@@H]3CC[C@]12C [Compound K]
intracellular levels spiked by a factor of (Caco-2 cells): 40

CC(C)=CCC[C@](C)(O)[C@H]1CC[C@]2(C)[C@@H]1[C@H](O)C[C@@H]1[C@@]3(C)CC[C@H](O[C@@H]4O[C@H](CO)[C@@H](O)[C@H](O)[C@H]4O[C@@H]4O[C@H](CO)[C@@H](O)[C@H](O)[C@H]4O)C(C)(C)[C@@H]3CC[C@]12C [G-Rg3, ginsenoside Rg3]
body weight loss or clinical signs of toxicity [3]: No significant body weight loss or clinical signs of toxicity

CC(C)=CCCC(C)(O)C1CCC2(C)C1C(O)CC1C3(C)CCC(OC4OC(CO)C(O)C(O)C4OC4OC(CO)C(O)C(O)C4O)C(C)(C)C3CCC12C (stereo not shown) [G-Rg3r, ginsenoside Rg3]
concentration at 20 weeks ([4]; intestine, oral, with verapamil coadministered (dose not stated), read-out: level in the intestine): 1350 ± 130 ng/g | concentration at 20 weeks ([4]; intestine, oral, read-out: level in the intestine): 530 ± 80 ng/g | concentration at 20 weeks ([4]; plasma, oral, with verapamil coadministered (dose not stated), read-out: plasma level): 1170 ± 470 nM | concentration at 20 weeks ([4]; plasma, oral, read-out: plasma level): 440 ± 320 nM | tumor load [5]: 0.75 ± 0.29 mm^3 | GST expression (GST [1]; [9]): 103.7 ± 15.5% | GST activity (GST [2]; [10]): 96.3 ± 6.6% | BPDE-DNA adduct level [6]: 1.87 ± 0.33 | BPDE-DNA adducts ([6]; control siRNA group): 1.47 ± 0.21 | BPDE-DNA adducts ([6]; siNrf2 group): 3.0 ± 0.21 | Pa-b (apical to basolateral) (Caco-2 monolayer; 10 µM G-Rg3, 50 µmol/L verapamil): 0.73 ± 0.06 | Pa-b (apical to basolateral) (Caco-2 monolayer; 10 µM G-Rg3, 100 µmol/L verapamil): 1.14 ± 0.09 | Pa-b (apical to basolateral) (Caco-2 monolayer; 10 µM G-Rg3, no verapamil): 0.38 ± 0.06 | Pb-a compared with Pa-b (Caco-2 monolayer): significantly higher | average Pb-a after verapamil treatment (Caco-2 monolayer; [11]): significant decrease | cytotoxicity on hEL cells (hEL cells): nontoxic | level of Nrf2 (Nrf2; B(a)P-G-Rg3 cotreatment): 106 ± 9.5%

CC(C)=CCCC(C)(O)C1CCC2(C)C1C(O)CC1C3(C)CCC(OC4OC(CO)C(O)C(O)C4OC4OC(CO)C(O)C(O)C4O)C(C)(C)C3CCC12C (stereo not shown) [G-Rg3s, ginsenoside Rg3]
plasma and intestine levels when verapamil was coadministered, in words ([4]; after 20-weeks treatment): followed a similar pattern | tumor load [5]: 0.81 ± 0.30 mm^3 | GST expression (GST [1]; [9]): 110 ± 11.1% | GST activity (GST [2]; [10]): 92.3 ± 6.5% | BPDE-DNA adduct level [6]: 1.93 ± 0.48 | BPDE-DNA adducts ([6]; control siRNA group): 1.8 ± 0.32 | BPDE-DNA adducts ([6]; siNrf2 group): 3.6 ± 0.45 | Pb-a compared with Pa-b (Caco-2 monolayer): significantly higher | average Pb-a after verapamil treatment (Caco-2 monolayer; [11]): significant decrease | transport (Pa-b) after verapamil treatment, in words (Caco-2 monolayer; [11]): followed a similar pattern | cytotoxicity on hEL cells (hEL cells): nontoxic | level of Nrf2 (Nrf2; B(a)P-G-Rg3 cotreatment): 117 ± 6.2%

CC(C)=CCC[C@](C)(O[C@@H]1O[C@H](CO)[C@@H](O)[C@H](O)[C@H]1O)[C@H]1CC[C@]2(C)[C@@H]1[C@H](O)C[C@@H]1[C@@]3(C)CC[C@H](O)C(C)(C)[C@@H]3[C@@H](O[C@@H]3O[C@H](CO)[C@@H](O)[C@H](O)[C@H]3O)C[C@]12C [Rg1]
levels in rat pulmonary epithelial cells [7]: increased

CC(C)=CC/C=C(\C)[C@H]1CC[C@]2(C)[C@@H]1[C@H](O)C[C@@H]1[C@@]3(C)CC[C@H](O[C@@H]4O[C@H](CO)[C@@H](O)[C@H](O)[C@H]4O[C@@H]4O[C@H](CO)[C@@H](O)[C@H](O)[C@H]4O)C(C)(C)[C@@H]3CC[C@]12C [Rg5]
ginsenoside in the blood ([4]; after 20-weeks KRGB treatment, oral): 0.0063 ± 0.0005 µg/mL

CC(C)=CCC[C@](C)(O)[C@H]1CC[C@]2(C)[C@@H]1[C@H](O)C[C@@H]1[C@@]3(C)CC[C@H](O[C@@H]4O[C@H](CO)[C@@H](O)[C@H](O)[C@H]4O)C(C)(C)[C@@H]3CC[C@]12C [ginsenoside Rh2]
bioavailability ([8]; initial value, without cyclosporine A): 1% | bioavailability ([8]; with cyclosporine A treatment): more than 30%
